Results as given in article PMC3578047 (European journal of pharmacology, 2012).
Counter-ions that a name gives are not always drawn.

Experiments:
[1] = tested on: lipopolysaccharide induced inflammatory pain (mechanical allodynia); assay type: in vivo, rat; settings: for effect on lipopolysaccharide induced allodynia over the dose range: s.c. 60 min prior to lipopolysaccharide, at 2 h
[2] = tested on: streptozocin induced type I diabetic neuropathic pain (mechanical allodynia); assay type: in vivo, rat; settings: for effect on neuropathic allodynia versus vehicle: 10 mg/kg s.c., over 6 h time course; for anti-allodynic effect over the time course versus vehicle: 15 min to 6 h
naive rats [3] = assay: rotorod motor skill test; settings: 3 mg/kg
naive rats [4] = assay: von Frey assay in the absence of a pain state; assay type: in vivo, rat; settings: for mechanical withdrawal thresholds in naive rats: 3 mg/kg
human sEH = settings: read-out: IC50 Human, fluorescent assay, ref Hwang 2007; cited from earlier work
[5] = cynomolgus monkey; ref Ulu et al., 2011; cited from earlier work
experimental logP = settings: determined experimentally as described by Tsai et al. 2010
[6] = plasma pharmacokinetics in rat; assay type: in vivo; settings: low dose, mean plasma AUC (S2)
[7] = tested on: plasma epoxyeicosatrienoic acids, dihydroxyeicosatrienoic acids, PGE2 and PGD2; assay: plasma oxylipin analysis in the inflammatory pain model; assay type: in vivo, rat; settings: 2 h post lipopolysaccharide
[8] = ref Liu 2009; cited from earlier work
[9] = ref Liu et al., 2009; cited from earlier work
[10] = 3 mg/kg s.c. 60 min prior to lipopolysaccharide

## Cc1ccc(-c2cc(C(F)(F)F)nn2-c2ccc(S(N)(=O)=O)cc2)cc1 [celecoxib, reference compound]
[1]; 10 mg/kg, 1 h prior to intraplantar lipopolysaccharide, over 6 h time course
  effect on lipopolysaccharide induced allodynia: marginal effect at the 3 hour time point
[2]; diabetic rats
  effect on neuropathic allodynia versus vehicle: no significant effect on the neuropathic allodynia

## CN1CC[C@]23c4c5ccc(O)c4O[C@H]2[C@@H](O)C=C[C@H]3[C@H]1C5 [morphine, Morphine sulfate, reference compound]
Naive rats [3]
  rotorod performance versus vehicle controls: no significant effect on rotorod performance
Naive rats [4]
  mechanical withdrawal thresholds in naive rats: significant increase in mechanical withdrawal thresholds

## O=C(Nc1cccc(OC(F)(F)F)c1)N[C@H]1CC[C@H](Oc2ccc(C(=O)O)cc2)CC1 [t-TUCB, trans-4-[4-(3-trifluoromethoxyphenyl-l-ureido)-cyclohexyloxy]-benzoic acid]
Human sEH
  IC50: 0.9 nM
[2]; 3 mg/kg s.c., diabetic rats
  anti-allodynic effect over the time course versus vehicle: significantly effective versus vehicle control over the time course but was delayed and less active when compared to APAU
[2]; 10 mg/kg, diabetic rats, early time points (Fig. S1, Table S3)
  mechanical withdrawal thresholds: increased mechanical withdrawal thresholds to pre-diabetic pain free scores at early time points
[2]; s.c., dose range 0.1-100 mg/kg, at 3 h
  dose of maximal response, the only significant dose: 10 mg/kg
[5]
  plasma protein binding: 99%
Experimental logP
  eLogP: 1.6
[6]
  overall pharmacokinetics in rats: best overall pharmacokinetics at low dose

## CC(=O)N1CCC(NC(=O)NC23CC4CC(CC(C4)C2)C3)CC1 [APAU, 1-(1-acetypiperidin-4-yl)-3-adamantanylurea]
[1]; 3 mg/kg oral gavage in PEG400, 1 h prior to lipopolysaccharide
  effect of oral gavage dose compared to s.c. dose: equaled the maximal effect of the s.c. dose
[1]; [10]
  earliest time point at which pain was blocked: 15 min
  effect over the time course versus vehicle control: significant versus vehicle control over the time course
[1]
  effect on lipopolysaccharide induced allodynia over the dose range: All doses of APAU except 0.1 mg/kg significantly blocked the lipopolysaccharide induced allodynia
[7]; 3 mg/kg
  plasma PGE2 and PGD2 versus lipopolysaccharide + vehicle: reduced both prostaglandins significantly
[7]; 100 mg/kg
  plasma PGE2 and PGD2 versus lipopolysaccharide + vehicle: did not significantly decrease PGE2 and PGD2 levels
[7]; 3 and 100 mg/kg
  sum dihydroxyeicosatrienoic acids in plasma versus vehicle controls: significantly lowered dihydroxyeicosatrienoic acids
  sum epoxyeicosatrienoic acids in plasma versus vehicle controls: did not significantly alter sum epoxyeicosatrienoic acids levels
[8]
  Water Solubility: 310 ±60 mg/L^b
Naive rats [4]
  mechanical withdrawal thresholds in naive rats: showed no effect in the assay
Naive rats [4]; 100 mg/kg
  nociceptive thresholds in absence of pain state versus vehicle: did not significantly alter the nociceptive thresholds
[2]; 3 mg/kg s.c., diabetic rats
  duration of anti-nociception: up to 5 h
  time of first anti-allodynic effect: 15 min
  anti-allodynic effect over the time course versus vehicle: blocked allodynia by the first measurement at 15 minutes
[2]; diabetic rats
  effect on neuropathic allodynia versus vehicle: significantly decreased allodynia
[2]; s.c., dose range 0.1-100 mg/kg, at 2 h
  most effective dose against allodynia: 3 mg/kg
[5]
  plasma protein binding: 35.5%
[9]
  plasma half-life: relatively short plasma half-life

## O=C(NC12CC3CC(CC(C3)C1)C2)N[C@H]1CC[C@H](Oc2ccc(C(=O)O)cc2)CC1 [t-AUCB, trans-4-[4-(3-adamantan-1-yl-ureido)-cyclohexyloxy]-benzoic acid]
[1]; [10]
  effect over the time course versus vehicle control: lacked a significance versus vehicle control over the time course
[1]
  effect on lipopolysaccharide induced allodynia over the dose range: significantly blocked pain related behavior only at the two highest doses 30 and 100 mg/kg
Human sEH
  IC50: […]
[2]; 3 mg/kg s.c., diabetic rats
  anti-allodynic effect over the time course versus vehicle: significant versus vehicle control over the time course but overall the effect was brief
[2]; s.c., dose range 1-100 mg/kg, at 2 h
  only dose with significant anti-allodynic effect: 100 mg/kg
